Results on 5 molecules are retold here after article PMC11256326, “Discovery of Heparin Mimetic, Potent, and Selective Inhibitors of Human Clotting Factor XIIIa” (ACS Omega, 2024).

In data set [1] the target is T1, thrombin (Homo sapiens, UniProt P00734).
T1 construct: Human plasma proteins such as FXIIIa, thrombin, factor Xa, and factor XIa; purchased Haematologic Technologies; host or cells: human plasma
Nature of the data set: chromogenic substrate hydrolysis assay, thrombin. The following applies: for IC50: Tris-HCl pH 7.4, 37 °C, > values from highest concentration used; for thrombin HS (Hill slope) / thrombin ΔY (efficacy): pH 7.4, 37 °C. It is filed as biochemical. The text has this:
(§1) One of the motivations for targeting anion-binding sites on human FXIIIa was to achieve selectivity in inhibition over closely related enzymes such as other clotting serine proteases or other transglutaminases and cysteine proteases.
(§2) Human plasma proteins such as FXIIIa, thrombin, factor Xa, and factor XIa were procured from Haematologic Technologies. Recombinant human TG-2 was sourced from Tocris Bioscience. Their activities were validated according to the supplier’s instructions. Chromogenic substrates for thrombin and factor Xa were acquired from Biomedica Diagnostics, while the factor XIa chromogenic substrate (S-2366) was obtained from Diapharma. Dithiothreitol, N,N-dimethylcasein, and dansylcadaverine were purchased from Sigma Aldrich. Stock solutions of thrombin and factor XIa were prepared in 50 mM Tris-HCl buffer, pH 7.4, containing 150 mM sodium chloride, 0.1% PEG8000, and 0.02% Tween80. The stock solution of factor Xa was prepared in 20 mM Tris-HCl buffer, pH 7.4, containing 100 mM sodium chloride, 0.1% PEG8000, 2.5 mM CaCl2, and 0.02% Tween80. The stock solutions of FXIIIa and rTG-2 were prepared in 50 mM Tris-HCl, 1 mM CaCl2, 100 mM sodium chloride, 0.02% Tween80, 0.1% PEG8000, and 2 mg/mL dimethylcasein. Papain and its chromogenic substrate (N-α-benzoyl-L-arginyl-4-nitroanilide) were obtained from Sigma Aldrich. Papain was prepared in 50 mM Tris-HCl buffer, pH 7.4, containing 100 mM NaCl, 100 mM DTT, 2.5 mM CaCl2, 0.1% PEG8000, and 0.02% Tween80. Human plasma for coagulation assays was obtained from George King Bio-Medica for the clotting assays. Thromboplastin-D (PT reagent), APTT reagent containing ellagic acid, and 0.025 M solution of CaCl2 were obtained from Thermo Fisher Scientific. Results were reproduced at least three times.
(§3) The inhibitory potential of various heparin mimetics against other clotting factors, including thrombin, factor Xa, and factor XIa, was also examined using established chromogenic substrate hydrolysis assays.[47],[50] For instance, in each well of a 96-well microplate containing either 85 or 185 μL of 20–50 mM Tris-HCl buffer (pH 7.4), supplemented with 100–150 mM NaCl, 0.1% PEG8000, and 0.02% Tween80 at either 25 or 37 °C, 5 μL of the inhibitor (or high purity water) and 5 μL of the enzyme were added. The final concentrations of the enzymes were 6 nM (thrombin), 1.09 nM (factor Xa), and 0.8 nM (factor XIa). After a 5 min incubation period, 5 μL of Spectrozyme TH (final concentration: 0.050 mM), Spectrozyme FXa (0.125 mM), or factor XIa substrate (0.35 mM) was swiftly added, and the residual enzyme activity was gauged from the initial rate of increase in absorbance at λ405 nm. The relative residual enzyme activity was calculated as a function of the inhibitor concentration. If 50% or more of the enzyme was inhibited, the results were then plotted using eq 1 to determine the corresponding IC50 values.

The subject of data set [2] is normal human plasma. Nature of the data set: activated partial thromboplastin time (APTT) of normal human plasma. The format is biochemical. As to conditions: for APTT2X (concentration required to double APTT): normal human plasma, in vitro. Here is the method: (§4) To further evaluate the selectivity as well as the potential toxicity of inhibitors, we studied their effects on the clotting times of normal human plasma as well as their effects on the proliferation of three cell lines. On the one hand, the inhibitors’ effects on activated partial thromboplastin time (APTT) and prothrombin time (PT) were measured, as described earlier under in vitro conditions,[52]−[55] using variable concentrations (0–2000 μM) (Table 3). […] On the other hand, the antiproliferative properties of inhibitors 13 and 16 were evaluated in three cell lines of breast (MCF-7), intestine (CaCo-2), and kidney (HEK-293) (Figure 5B), as described earlier.[56] […] Overall, inhibitor 16 can be considered for further development as a potent, selective, and nontoxic inhibitor of human FXIIIa.
(§5) Clotting times, including activated partial thromboplastin time (APTT) and prothrombin time (PT), were assessed in normal human plasma utilizing the BBL Fibrosystem fibrometer from Becton–Dickinson, as detailed in previous publications.[51]−[54] For the PT assay, thromboplastin-D was dissolved in 4 mL of highly purified water and then warmed to 37 °C. Subsequently, 10 μL of the inhibitor was added to 90 μL of normal human plasma and incubated for 30 s. Following this, 200 μL of prewarmed PT reagent was added, and the clotting time was recorded. In the APTT assay, 10 μL of the inhibitor was combined with 90 μL of normal human plasma and 100 μL of prewarmed APTT reagent (0.2% ellagic acid). After incubation for 4 min at 37 °C, clotting was initiated by adding 100 μL of prewarmed 0.025 M CaCl2, and the clotting time was documented. Multiple concentrations of each molecule were employed in both assays to establish a concentration vs effect curve.

Another data set has as its target T2, factor Xa (Homo sapiens, UniProt P00742).
T2 construct: Human plasma proteins such as FXIIIa, thrombin, factor Xa, and factor XIa; purchased Haematologic Technologies; host or cells: human plasma
Nature of the data set: chromogenic substrate hydrolysis assay, factor Xa. The format is biochemical. The following applies: for IC50: Tris-HCl pH 7.4, 37 °C, > values from highest concentration used, read-out: FXa IC50; for FXa HS (Hill slope) / FXa ΔY (efficacy): pH 7.4, 37 °C.
Excerpt: as §1, §2, §3

In data set [3] the test system is thrombin. Nature of the data set: chromogenic substrate hydrolysis assay, thrombin. It is filed as biochemical, human.
Excerpt: as §1, §2, §3

The test system of data set [4] is normal human plasma. The experiment in a line: prothrombin time (PT) of normal human plasma. It is filed as biochemical. As to conditions: in vitro. The procedure:
as §4, §5

Data set [5] has as its system MCF-7 human breast carcinoma cells. The experiment in a line: cell viability, Alamar Blue, MCF-7. The format is cell-based. The following applies: MCF-7, 10 μM, 3 days. Here is the method:
as §4
(§6) HEK-293 human embryonic kidney cells,[66] CaCo-2 heterogeneous human epithelial colorectal adenocarcinoma cells,[67] and MCF-7 human breast carcinoma cells[68] were treated as reported previously.[69],[70] […] Subsequently, fluorescence readings (λEx. = 560 nm and λEm. = 590 nm) were taken using the Synergy H1 multiplate reader (BioTek) to quantify cell numbers both in the absence (utilizing distilled water as a control) and the presence of inhibitors 13 and 16 (at a concentration of 10 μM; incubated for 3 days). […]

Data set [6] has as its system HEK-293 human embryonic kidney cells. The experiment in a line: cell viability, Alamar Blue, HEK-293. The format is cell-based. As to conditions: HEK-293, 10 μM, 3 days. The procedure:
as §4, §6

A value given as a limit tells only on which side of the number the result lay.

T2 sequence (P00742 235-488 limits assumed): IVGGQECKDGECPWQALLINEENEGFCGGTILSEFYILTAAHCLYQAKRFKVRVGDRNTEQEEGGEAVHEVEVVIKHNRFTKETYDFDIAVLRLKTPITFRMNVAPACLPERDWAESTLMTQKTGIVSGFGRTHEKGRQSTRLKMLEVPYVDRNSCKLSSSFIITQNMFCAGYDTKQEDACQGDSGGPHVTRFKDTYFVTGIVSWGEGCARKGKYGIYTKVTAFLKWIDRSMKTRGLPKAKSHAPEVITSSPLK
T2 sequence (P00742 41-179 limits assumed): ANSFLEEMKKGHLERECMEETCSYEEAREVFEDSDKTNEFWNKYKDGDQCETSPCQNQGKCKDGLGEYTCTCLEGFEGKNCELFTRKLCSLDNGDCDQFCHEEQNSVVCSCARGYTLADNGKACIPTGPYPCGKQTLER

On thrombin [1], `Nc1c(/N=N/c2ccc(Nc3nc(Cl)nc(Nc4cccc(S(=O)(=O)O)c4)n3)cc2S(=O)(=O)O)c(S(=O)(=O)O)cc2c(O)c(/N=N/c3ccc(Nc4nc(Cl)nc(Nc5cccc(S(=O)(=O)O)c5)n4)cc3S(=O)(=O)O)ccc12` [compound 14] yielded an IC50 greater than 500 µM. The “APTT2X (concentration required to double APTT)” value (shortened to “APTT2X”) in the data set with normal human plasma [2] came out at 583 ± 60 µM. Also, on factor Xa, the “selectivity index for FXIIIa over factor Xa” value was 6 fold, the IC50 was 31 ± 5.7 µM, the “FXa HS (Hill slope)” value is recorded as 2.5 ± 0.9 and the “FXa ΔY (efficacy)” value turned out to be 53 ± 5%.

With `COc1cc(-c2ccc(/N=N/c3ccc4c(S(=O)(=O)O)cc(S(=O)(=O)O)c(N)c4c3O)c(OC)c2)ccc1/N=N/c1ccc2c(S(=O)(=O)O)cc(S(=O)(=O)O)c(N)c2c1O` [compound 19], in the data set on thrombin [3], the “selectivity index for FXIIIa over thrombin” value was “at least 7 fold”. Further, the IC50 on thrombin [1] and at factor Xa was greater than 100 µM each time. The “APTT2X” value in the data set with normal human plasma [2] came to 1840.7 ± 88 µM. In addition, in the data set with normal human plasma [4], the “PT2X (concentration required to double PT)” value worked out at 3073.2 ± 281 µM. The “selectivity index for FXIIIa over factor Xa” value at factor Xa was “at least 7 fold”.

As for `Cc1cc(-c2ccc(/N=N/c3ccc4c(S(=O)(=O)O)cc(S(=O)(=O)O)c(N)c4c3O)c(C)c2)ccc1/N=N/c1ccc2c(S(=O)(=O)O)cc(S(=O)(=O)O)c(N)c2c1O` [compound 18], on thrombin [1], the “thrombin HS (Hill slope)” value worked out at 2.6 ± 1.0 and the “thrombin ΔY (efficacy)” value is listed as 62 ± 5%. Further, the “APTT2X” value with normal human plasma [2] was determined as 224.3 ± 20 µM. Moreover, in the data set with normal human plasma [4], the “PT2X (concentration required to double PT)” value turned out to be 497.9 ± 52 µM. At factor Xa, the “FXa HS (Hill slope)” value amounted to 1.9 ± 0.2 and the “FXa ΔY (efficacy)” value turned out to be 80 ± 2%.

For `Nc1c(/N=N/c2ccc(S(=O)(=O)CCOS(=O)(=O)O)cc2)c(S(=O)(=O)O)cc2cc(S(=O)(=O)O)c(/N=N/c3ccc(S(=O)(=O)CCOS(=O)(=O)O)cc3)c(O)c12` [compound 16], the “selectivity index for FXIIIa over thrombin” value in the data set on thrombin [3] is reported as greater than 208 fold. For the same molecule, the IC50 against thrombin [1] is greater than 500 µM. Also, the “effect on proliferation / cell viability” value in data set [5] is recorded as “does not significantly affect the proliferation”. In data set [6], the “effect on proliferation / cell viability” value was “does not significantly affect the proliferation”. In addition, in the data set with normal human plasma [2], the “concentration to double APTT as fold of the FXIIIa-IC50” value was greater than 290 fold and the “APTT2X” value was 704.6 ± 69 µM. At factor Xa, the “selectivity index for FXIIIa over factor Xa” value was greater than 208 fold and the IC50 was greater than 500 µM.

As for `Nc1c(S(=O)(=O)O)cc(Nc2ccc(Nc3nc(Cl)nc(Nc4ccccc4S(=O)(=O)O)n3)c(S(=O)(=O)O)c2)c2c1C(=O)c1ccccc1C2=O` [compound 13], the “selectivity index for FXIIIa over thrombin” value in the data set on thrombin [3] worked out at 28 fold. On thrombin [1], the IC50 turned out to be 86.9 ± 33.6 µM, the “thrombin HS (Hill slope)” value worked out at 1.9 ± 1.5 and the “thrombin ΔY (efficacy)” value is 43 ± 11%. The “effect on proliferation / cell viability” value in data set [5] was “does not significantly affect the proliferation”. The “effect on proliferation / cell viability” value in data set [6] is reported as “does not significantly affect the proliferation”. For the same molecule, the “APTT2X” value in the data set with normal human plasma [2] amounted to 1187.2 ± 175 µM. Besides, at factor Xa, the “selectivity index for FXIIIa over factor Xa” value was determined as 20 fold, the IC50 came out at 63.5 ± 13 µM, the “FXa HS (Hill slope)” value amounted to 1.5 ± 0.5 and the “FXa ΔY (efficacy)” value stood at 87 ± 4%.
